Experimental data as given in article PMC12064818, “A general assay platform to study protein pharmacology using ligand-dependent structural dynamics” (Nature Communications, 2025).
Where two headings read alike, the source gives them in different places.

What was measured:
NLuc = biological target: T1, NLuc (Oplophorus gracilirostris, UniProt Q9GV45, A31E/A60N/A81I/F95D/I117V/K70R/L54V/L99Q/M102K/N193R/P142E/Q151K/Q38R/Q45L/V71I/Y165I); assay type: biochemical; conditions: - ATP
T1 construct: His tag (inferred from IMAC purification); made in house; host or cells: E. coli
Outline: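 Test compounds added to 1 nM NLuc in PBS with 0.05% IGEPAL, ± ATP. Nano-Glo reagent added and incubated 10 min before luminescence read.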

P. pyralis FLuc = P. pyralis FLuc (Photinus pyralis, UniProt P08659); assay: FLuc enzymatic luminescence assay, P. pyralis FLuc; assay type: biochemical; conditions: FLuc enzymatic assay; for IC50: read-out: IC50 or SDR50 (mM) FLuc E
Outline: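 Runs with and without 10 µM ATP: compounds were pre-incubated with FLuc (1–10 nM, PBS pH 7.4) at ambient temperature, light-protected, for 30–60 min. Luminescence was imaged 5 min after adding 10 µM D-luciferin (final). Inhibition was scaled between DMSO neutral and no-enzyme controls.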

FLuc-C-HiBiT = biological target: T2, FLuc-C-HiBiT (Photinus pyralis, UniProt P08659); assay: biochemical; conditions: enzyme activity, 10 uM ATP; read-out: IC50 or SDR50 (mM) / FLuc E
T2 construct: firefly luciferase with C-terminal HiBiT tag, E. coli expressed

[1] = biological target: FLuc-C-HiBiT (firefly luciferase) (Photinus pyralis, UniProt P08659, form not given/L550V); assay: SDR assay, FLuc-C-HiBiT; conditions: for % Activity (max response, + ATP) / % Activity (max response, - ATP): SDR max. response, clade S
[2] = biological target: FLuc-C-NLuc (firefly luciferase) (Photinus pyralis, UniProt P08659, form not given/L550V); assay: SDR assay, FLuc-C-NLuc; conditions: - ATP
Sequence of FLuc-C-NLuc (firefly luciferase) (P08659 2-550 L550V, form open): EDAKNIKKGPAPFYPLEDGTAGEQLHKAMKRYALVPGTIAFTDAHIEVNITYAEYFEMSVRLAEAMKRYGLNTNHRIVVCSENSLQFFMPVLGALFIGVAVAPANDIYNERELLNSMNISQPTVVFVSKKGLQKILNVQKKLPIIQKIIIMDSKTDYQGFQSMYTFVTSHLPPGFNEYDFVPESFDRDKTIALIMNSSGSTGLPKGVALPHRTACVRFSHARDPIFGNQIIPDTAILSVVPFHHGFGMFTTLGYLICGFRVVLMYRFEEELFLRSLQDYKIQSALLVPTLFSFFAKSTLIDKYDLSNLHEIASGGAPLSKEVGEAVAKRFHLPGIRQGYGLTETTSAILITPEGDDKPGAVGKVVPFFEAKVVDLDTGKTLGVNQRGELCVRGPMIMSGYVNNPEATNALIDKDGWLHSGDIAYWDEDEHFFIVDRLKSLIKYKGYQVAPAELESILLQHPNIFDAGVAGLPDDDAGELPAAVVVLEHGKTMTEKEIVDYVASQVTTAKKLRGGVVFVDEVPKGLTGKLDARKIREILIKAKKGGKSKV

Sequence of FLuc-C-HiBiT (firefly luciferase) (P08659 2-550 L550V, form open): as above
T1 sequence (Q9GV45 other isoform, or with tags, fused parts or gaps with the stated changes): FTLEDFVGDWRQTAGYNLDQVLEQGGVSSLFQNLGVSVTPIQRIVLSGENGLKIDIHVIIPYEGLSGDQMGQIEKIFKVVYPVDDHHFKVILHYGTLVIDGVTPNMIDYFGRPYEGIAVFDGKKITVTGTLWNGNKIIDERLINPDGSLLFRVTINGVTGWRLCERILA
T2 sequence (P08659 whole entry, looked up): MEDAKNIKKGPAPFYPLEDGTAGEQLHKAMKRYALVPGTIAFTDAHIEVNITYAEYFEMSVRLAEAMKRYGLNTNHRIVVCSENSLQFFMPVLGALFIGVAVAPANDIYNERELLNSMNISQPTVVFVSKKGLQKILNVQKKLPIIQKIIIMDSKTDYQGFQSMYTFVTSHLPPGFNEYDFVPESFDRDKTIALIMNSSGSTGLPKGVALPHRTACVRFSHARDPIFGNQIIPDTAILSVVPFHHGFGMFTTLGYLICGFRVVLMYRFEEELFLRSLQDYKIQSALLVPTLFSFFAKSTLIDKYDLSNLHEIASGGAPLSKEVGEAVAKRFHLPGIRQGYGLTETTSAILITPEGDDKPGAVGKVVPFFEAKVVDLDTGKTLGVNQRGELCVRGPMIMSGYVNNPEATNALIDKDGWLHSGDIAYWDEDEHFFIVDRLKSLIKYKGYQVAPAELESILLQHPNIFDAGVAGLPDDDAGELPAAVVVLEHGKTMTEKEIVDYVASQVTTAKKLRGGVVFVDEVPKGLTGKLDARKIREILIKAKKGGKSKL
Sequence of P. pyralis FLuc (P08659 whole entry): as the sequence (P08659 whole entry, looked up) above

Row | Compound | Efficacy (%) NLuc (- ATP) (NLuc) | pIC50 or pSDR50 FLuc E (P. pyralis FLuc) | Efficacy (%) FLuc E (P. pyralis FLuc; Clade S follow-up) | IC50 (P. pyralis FLuc) | IC50 (FLuc-C-HiBiT) | % Activity (max response, + ATP) [1] | % Activity (max response, - ATP) ([1]; - ATP) | Efficacy (%) FLuc-C-NLuc SDR (-ATP) [2] | pIC50 or pSDR50 FLuc E (P. pyralis FLuc; Clade S follow-up) | IC50 (P. pyralis FLuc; Clade S follow-up) | pSDR50 (clade S) ([1]; - ATP, dihydro-imidazo-oxazine (clade S))
1 | CCOc1cccc(CNC(=O)C2CCN(C(=O)c3ncn4c3COC(c3ccccc3)C4)CC2)c1 (stereo not drawn) [NCGC00449780-01] | 0.00% | 4.96 | -78.48% | 0.0111 mM | 0.00785 mM | 197.04% | 0.00% | 0.00% | – | – | –
2 | Cc1cc(C)cc(NC(=O)C2CCN(C(=O)c3ncn4c3COC(c3ccccc3)C4)CC2)c1 (stereo not drawn) [NCGC00449905-01] | 0.00% | – | -86.91% | – | 0.00313 mM | 375.38% | 0.00% | 0.00% | 5.46 | 0.0035 mM | –
3 | CCOc1ccc(NC(=O)C2CCN(C(=O)c3ncn4c3COC(c3ccccc3)C4)CC2)cc1 (stereo not drawn) [NCGC00449913-01] | -11.50% | – | -92.73% | – | 0.007 mM | 212.53% | 0.00% | 0.00% | 5.36 | 0.00441 mM | –
4 | COc1ccc(NC(=O)C2CCN(C(=O)c3ncn4c3COC(c3ccccc3)C4)CC2)cc1Cl (stereo not drawn) [NCGC00449919-01] | -11.50% | – | -103.24% | – | 0.000881 mM | 241.73% | 38.71% | -15.13% | 6.36 | 0.00044 mM | 4.85
5 | O=C(Nc1ccc(Cl)cc1)C1CCN(C(=O)c2ncn3c2COC(c2ccccc2)C3)CC1 (stereo not drawn) [NCGC00449917-01] | 0.00% | – | -91.81% | – | 0.00176 mM | 361.85% | 0.00% | 0.00% | 5.81 | 0.00157 mM | –
6 | O=C(NCc1cc(F)ccc1F)C1CCN(C(=O)c2ncn3c2COC(c2ccccc2)C3)CC1 (stereo not drawn) [NCGC00449804-01] | 0.00% | 5.41 | -84.67% | 0.00393 mM | 0.00313 mM | 321.30% | 16.31% | 0.00% | – | – | –
7 | COc1ccc(C)cc1NC(=O)C1CCN(C(=O)c2ncn3c2COC(c2ccc(F)cc2)C3)CC1 (stereo not drawn) [NCGC00449936-01] | 0.00% | – | -99.49% | – | 0.00989 mM | 128.83% | -5.78% | 0.00% | 5.06 | 0.0088 mM | –
8 | O=C(NCc1ccc(F)cc1Cl)C1CCN(C(=O)c2ncn3c2COC(c2ccccc2)C3)CC1 (stereo not drawn) [NCGC00449789-01] | 0.00% | 5.01 | -100.38% | 0.00988 mM | 0.00881 mM | 205.97% | 0.00% | 0.00% | – | – | –
9 | O=C(NCc1cccs1)C1CCN(C(=O)c2ncn3c2COC(c2ccccc2)C3)CC1 (stereo not drawn) [NCGC00449792-01] | 0.00% | 5.51 | -100.37% | 0.00312 mM | 0.00248 mM | 209.49% | 17.67% | 0.00% | – | – | –
10 | Cc1cccc(NC(=O)C2CCN(C(=O)c3ncn4c3COC(c3ccccc3)C4)CC2)c1 (stereo not drawn) [NCGC00449902-01] | 0.00% | – | -97.06% | – | 0.00248 mM | 372.05% | 0.00% | 0.00% | 5.66 | 0.00221 mM | –
11 | O=C(Nc1ccc(F)cc1)C1CCN(C(=O)c2ncn3c2COC(c2ccccc2)C3)CC1 (stereo not drawn) [NCGC00449915-01] | 0.00% | – | -91.87% | – | 0.00176 mM | 357.60% | 0.00% | 0.00% | 5.91 | 0.00124 mM | –
12 | CCCCNC(=O)C1CCN(C(=O)c2ncn3c2COC(c2ccccc2)C3)CC1 (stereo not drawn) [NCGC00449772-01] | 0.00% | 5.11 | -88.46% | 0.00784 mM | 0.00624 mM | 357.97% | 0.00% | 0.00% | – | – | –
13 | COCCNC(=O)C1CCN(C(=O)c2ncn3c2COC(c2ccc(F)cc2)C3)CC1 (stereo not drawn) [NCGC00449834-01] | 0.00% | – | -35.83% | – | – | 67.53% | 0.00% | 0.00% | 4.91 | 0.0124 mM | –
14 | CCc1cccc(NC(=O)C2CCN(C(=O)c3ncn4c3COC(c3ccccc3)C4)CC2)c1 (stereo not drawn) [NCGC00449906-01] | 0.00% | – | -98.95% | – | – | 357.78% | 0.00% | 0.00% | 5.76 | 0.00176 mM | –
15 | O=C(NC1CCCCCCC1)C1CCN(C(=O)c2ncn3c2COC(c2ccc(Cl)cc2)C3)CC1 (stereo not drawn) [NCGC00449847-01] | 0.00% | – | -17.30% | – | – | 0.00% | 0.00% | 0.00% | – | – | –
16 | COc1ccc(C2Cn3cnc(C(=O)N4CCC(C(=O)NCc5cccc(C)c5)CC4)c3CO2)cc1 (stereo not drawn) [NCGC00449879-01] | 0.00% | – | 0.00% | – | – | 0.00% | 0.00% | 0.00% | – | – | –
17 | Cc1ccc(C2Cn3cnc(C(=O)N4CCC(C(=O)NCc5ccccc5F)CC4)c3CO2)cc1 (stereo not drawn) [NCGC00449888-01] | 0.00% | – | -37.08% | – | – | 72.23% | 0.00% | 0.00% | 4.91 | 0.0124 mM | –
18 | O=C(NCc1cccc(F)c1)C1CCN(C(=O)c2ncn3c2COC(c2ccc(F)cc2)C3)CC1 (stereo not drawn) [NCGC00449837-01] | 0.00% | – | -43.87% | – | – | 75.17% | 0.00% | 0.00% | 5.01 | 0.00988 mM | –
19 | O=C(NC1CCCCC1)C1CCN(C(=O)c2ncn3c2COC(c2ccc(Cl)cc2)C3)CC1 (stereo not drawn) [NCGC00449844-01] | 0.00% | – | -39.79% | – | – | 33.25% | 0.00% | 0.00% | 4.96 | 0.0111 mM | –
20 | Cc1cccc(CNC(=O)C2CCN(C(=O)c3ncn4c3COC(c3ccc(F)cc3)C4)CC2)c1 (stereo not drawn) [NCGC00449836-01] | -9.94% | – | -28.36% | – | – | 48.27% | 0.00% | 0.00% | 4.91 | 0.0124 mM | –
21 | Cc1ccc(CNC(=O)C2CCN(C(=O)c3ncn4c3COC(c3ccc(F)cc3)C4)CC2)cc1 (stereo not drawn) [NCGC00449814-01] | 0.00% | – | -11.84% | – | – | 17.69% | 0.00% | 0.00% | – | – | –
22 | O=C(NCCC1=CCCCC1)C1CCN(C(=O)c2ncn3c2COC(c2ccccc2)C3)CC1 (stereo not drawn) [NCGC00449771-01] | 0.00% | 5.56 | -97.83% | 0.00278 mM | – | 338.43% | 0.00% | 0.00% | – | – | –
23 | O=C(NCc1cc(F)cc(F)c1)C1CCN(C(=O)c2ncn3c2COC(c2ccc(F)cc2)C3)CC1 (stereo not drawn) [NCGC00449820-01] | 0.00% | 4.96 | -30.45% | 0.0111 mM | – | 44.22% | 0.00% | 0.00% | – | – | –
